Measurements: patent US20240226232A9, “PROTEIN-BASED THERAPIES FOR OCULAR CONDITIONS” (The Regents of the University of Colorado, A Body Corporate, priority 2021, published 2024)

What was measured:
retinal capillary cells = assay: I/R injury mouse model, acellular retinal capillary count; format: in vivo, C57BL/6J mice; conditions: 0.5 μg intravitreal immediately after I/R injury and again after one week; day 14
Protocol: This ocular hypertension model was generated by initially anesthetizing 12-week-old C57BL/6J mice via intraperitoneal injection of ketamine/xylazine supplemented with a topical application of 0.5% proparacaine hydrochloride. To perform the I/R injury, the right eye was cannulated into the anterior chamber with a 33-gauge needle connected to an elevated pouch containing 250 ml of 0.9% NaCl solution. […] The PBS-injected eyes were used as vehicle controls. The contralateral eyes were used as additional controls.
After careful removal of the internal limiting membrane (ILM), retinas were placed in 12-well plates with Tris-HCl buffer at a pH of 7.8, and then shaken overnight to loosen the remaining RGCs. The retinas were then transferred to glass microscopy slides and the remaining neuronal tissues carefully dislodged through gentle agitation produced by a 20-μL pipette in Tris-HCl. Periodic acid Schiff (PAS) stain was used to visualize the isolated retinal capillary layer. An inverted fluorescence microscope was used to image the mounted capillaries, and the acellular capillaries from each treatment group were counted and analyzed.

RGCs [1] = assay: Microbead mouse model of ocular hypertension, Brn3a-positive RGC count and βIII-tubulin staining after intravitreal peptide; format: in vivo, mice; conditions: 1 μg intravitreal once weekly for three weeks; for RGCs per mm^2 in retina after six weeks: control almost 3,400, vehicle less than 2,300
Protocol: The first ocular hypertension model was generated by initially anesthetizing mice via intraperitoneal injection of ketamine/xylazine supplemented with a topical application of 0.5% proparacaine hydrochloride. […] The cornea was gently punctured near the center using a 33G needle, and a small air bubble was injected to lift the anterior chamber of the eye. […] An antibiotic ointment was applied topically on the injected eye to prevent infection.
The intraocular pressure was measured weekly for six weeks using a tonometer. In particular, the mice were placed in an anesthetic chamber filled with a sustained flow of isoflurane (5% isoflurane at 2 L/minute mixed with oxygen). The tonometer took five measurements for each weekly check-in, eliminated the high and low readings, and generated an average intraocular pressure from the remaining readings for each mouse.
After six weeks of microbead injection, the eyes were dissected out and post-fixed with 4% PFA overnight at 4° C. The retinas were subsequently dissected out and washed three times in PBS before blocking (5% normal donkey serum and 1% Triton X-100 in PBS) overnight. Whole-mount retinas were then immunostained for Brn3a and βIII-tubulin (1:500 dilution), which are markers for RGCs and axonal cells, respectively. The retinas were then stained with Alexa Fluor 488 donkey anti-mouse or Texas red-conjugated goat anti-rabbit IgG (1:250 dilution). Four image fields from each retinal region were obtained using a 20× lens with a Zeiss confocal. The Brn3a-positive RGC numbers were counted (cells/mm^2) in the mid-peripheral regions from four quadrants of the whole-mounted retina using the ImageJ software (NIH). Contralateral uninjured eyes were used as a control.

TNF-α = assay: I/R injury mouse model, retinal cytokine mRNA by quantitative real-time PCR; format: in vivo, mice; conditions: two days after I/R injury; 0.5 μg intravitreal
Protocol: (§1) To measure pro-inflammatory cytokine levels, mice were sacrificed, and retinas were dissected two days after I/R injury. Total RNA was then lysed from the retinas, two micrograms of RNA was reverse-transcribed to synthesize cDNA, and quantitative real-time PCR was performed. The sequences of the PCR primers were as follows: TNF-α forward primer—5′-[…]-3′ and reverse primer—[…]-3′; IL-1β forward primer—5′-5′-[…]-3′ and reverse primer—5′-[…]-3; IFN-γ forward primer—5′-[…]-3′ and reverse primer—5′-[…]-3′. The mRNA levels were analyzed using the comparative Ct method (2-ΔΔCT) and then normalized to β-actin (forward primer—5′-[…]-3′ and reverse primer—5′-[…]-3′).

IL-1β = assay: as above; format: in vivo, mice; conditions: two days after I/R injury; 0.5 μg intravitreal
Protocol: as §1

[2] = tested on: Human retinal endothelial cells (HRECs); assay: Pro-inflammatory cytokine-mediated apoptosis of HRECs, cleaved caspase-3 Western blot; format: cell-based; conditions: 200 μg/mL peptide for three hours, then cytokine mixture (CM) 48 hours, CM only approx. 1:1
Protocol: The sequence of the first scrambled control peptide was […] (SEQ ID NO: 4), and the sequence of the second scrambled control peptide was […] (SEQ ID NO: 5). All test cells were then treated with a combination of pro-inflammatory cytokines (IFN-γ at 50 U/mL+TNF-α at 20 ng/mL+IL-1β at 20 ng/mL) for 48 hours.
Cell lysates were prepared using 1×RIPA buffer containing a protease inhibitor cocktail. Protein concentrations of the cell lysates were measured using the BCA method, and 25 μg of protein were used for immunoblotting. To measure HREC apoptosis, the cells were immunostained for active (cleaved) caspase-3, specifically, which is a marker for apoptosis. β-actin antibody staining was used as a control for measuring levels of a housekeeping protein and for calculating protein density compared to caspase-3 levels.

RGCs [3] = assay: Silicone oil mouse model of ocular hypertension, Brn3a-positive RGC count after intravitreal peptide; format: in vivo, mice; conditions: single 1 μg intravitreal dose, day 28
Text: The second ocular hypertension model was generated by anesthetizing mice via intraperitoneal injection of ketamine/xylazine supplemented with topical application of 0.5% proparacaine hydrochloride. A 33G needle was tunneled through the cornea of each tested eye at the superotemporal side close to the limbus to reach the anterior chamber without injuring the lens or iris. […] After the injection, the upper eyelid was gently massaged to close the corneal incision and minimize oil leakage, and veterinary antibiotic ointment was applied to the surface of the injected eye to prevent infection.
After two weeks, the silicone oil droplet was removed. […] Veterinary antibiotic ointment was applied to the surface of the eye after oil removal.
The intraocular pressure of each eye was monitored once weekly until four weeks after silicone oil injection using a tonometer under anesthesia with a sustained flow of isoflurane (5% isoflurane at 2 L/minute mixed with oxygen). Two weeks after oil removal (day 28), retinas were removed and immunostained with Brn3a and βIII-tubulin antibodies to visualize and count the surviving RGCs.

| Substance | number of acellular capillaries per retina (retinal capillary cells) | axonal degeneration (βIII-tubulin immunostaining) (RGCs [1]) | reduction in RGC death (compared to vehicle control group) (RGCs [1]) [%] | RGCs per mm^2 in retina after six weeks (RGCs [1]) | reduction of the increase in TNF-α expression compared to the vehicle group (TNF-α) [fold] | reduction of the increase in IL-1β expression compared to the vehicle group (IL-1β) [fold] | density ratio of cleaved caspase-3 to β-actin [2] | RGC death reduced by (compared to PBS-treated control 206) (RGCs [3]) [%] |
| --- | --- | --- | --- | --- | --- | --- | --- | --- |
| DRFSVNLDVKHFSPEELKVKV [peptain-1] | lower number of per-retina acellular capillaries | inhibited axonal degeneration | 4 | over 3,200 RGCs per mm^2 | 6.2 | 4.6 | ~0.5 | 15.7 |
| FEPSVRFSKVDHLVKENDLVK [Scr-2] |  |  |  |  |  |  | greater density ratio |  |
| G^73HFSVLLDVK(acetyl)HFSPEEIAVK^91 [peptain-3a] |  | inhibited axonal degeneration | 12 | about 3,000 RGCs per mm^2 |  |  |  | 14.2 |
| SLKEKRNFDVSEVKHVLFVDP [Scr-1] |  |  |  |  |  |  | greater density ratio |  |
